Laboratory results published in US6020363A, “Isocoumarin derivatives and use thereof in drugs” (Mercian Corporation, priority 1998, dated 2000).

Tests used:
[1] = tested on: collagen-induced arthritis; assay: Inhibitory Effect on Collagen-Induced Arthritis (No. 1), sole thickness; assay type: in vivo, DBA/1J mice; details: intraperitoneal, mean ± SD, *p < 0.05 vs control (8.02 ± 0.82)
Procedure: (§1) The preventive effect on the onset of collagen-induced arthritis was tested by using DBA/1J mice in groups of 5-8. Specifically, type II collagen was mixed with an equal volume of Freund's complete adjuvant and emulsified to prepare a 1 mg/ml emulsion. Mice were sensitized by administering 0.1 ml of this emulsion intracutaneously to the root of the tail. After 21 days, the mice were additionally immunized by emulsifying type II collagen in the same manner as before and administering 0.1 ml of the emulsion intraperitoneally so as to induce arthritis.
Starting from the day of the first sensitization with type II collagen, Compound 1 was orally administered, once a day, for 43 days in a dose of 10 or 30 mg/kg body weight. Similarly, each of Compounds 2 and 3 was intraperitoneally administered, once a day, for 43 days in a dose of 1 or 10 mg/kg body weight. Their inhibitory effect on collagen-induced arthritis was evaluated by measuring the sole thicknesses of the hind legs periodically with digital vernier calipers.

[2] = tested on: collagen-induced arthritis; assay: Inhibitory Effect on Collagen-Induced Arthritis (No. 2), arthritis score; assay type: in vivo, DBA/1J mice; details: oral, mean ± SE, maximum 16
Procedure: as §1
Animals having arthritis induced in the same manner as described above were used in groups of 7-8. Compound 3 was orally administered, once a day, for 21 days following the additional immunization in a dose of 1, 3 or 10 mg/kg body weight. For comparative purposes, MI43 was similarly administered to another group in a dose of 30 mg/kg body weight. According to the degree of rubor, swelling and rigidity in each of the forelegs and hind legs of the experimental animals, their inhibitory effect on collagen-induced arthritis was evaluated on the following basis by a score ranging from 0 to 4 (with a maximum value of 16).
0: No symptom is observed.
2: Two or more small joints, or a relatively large joint such as that of the wrist or ankle, show rubor or swelling.
4: The total swelling of the hand or foot reaches its peak and, moreover, is accompanied by joint rigidity.

[3] = tested on: neogenesis of tumor vessels induced by the transplanted mouse tumor S180; assay: Inhibitory Effect on Vascularization Using the Mouse Back Subcutaneous Transplantation Method; assay type: in vivo, male ICR mouse; details: for Vascularization score: 5 days, mean ± SE, control 2.93 ± 0.07
Procedure: The inhibitory effect of Compounds 1 and 3 in accordance with the present invention on the neogenesis of tumor vessels induced by the transplanted mouse tumor S180 was tested using the mouse back subcutaneous transplantation method. Specifically, 1×10^7 S180 cells were injected into a chamber formed by attaching a Millipore filter having a pore size of 0.45 μm to either side of a Millipore ring. After the injection hole was stopped up, this chamber was transplanted into an air sac formed beneath the skin of the back of a male ICR mouse (9-10 weeks old). Starting from the day of transplantation, a test compound or a solvent control comprising a 0.5% carboxymethylcellulose solution was orally administered for 5 days. After the skin was separated on the fifth day of transplantation, an O-ring of 10 mm internal diameter having the same shape as the Millipore ring was placed on the part of the skin which had been in contact with the chamber, observed under a stereoscopic microscope, and photographed.
In the photographs so taken, the degree of vascularization was rated 0, 1, 2 or 3 according to the number of 3 mm or longer tortuous blood vessels characteristic of tumoral vessels, and scored on the following basis.
0: No tumoral vessel was observed.
1: One tumoral vessel was observed.
2: Two tumoral vessels were observed.
3: Three or more tumoral vessels were observed.

[4] = tested on: carrageenin edema; assay: Effect on Carrageenin Edema; assay type: in vivo, ICR mice; details: for Degree of edema (%): 2 h after carrageenin, mean ± SE, control 47.4 ± 2.8
Procedure: The effect on carrageenin edema was tested by using ICR mice in groups of 6-7. Specifically, Compound 3 was orally administered thereto in a dose of 3 or 30 mg/kg body weight. As a positive control drug, indomethacin was similarly administered in a dose of 20 mg/kg body weight. After 30 minutes, 25 μl of a 1% carrageenin solution was subcutaneously injected into the sole of the right hind leg. Two hours after the administration of carrageenin, the thickness of the sole was measured with digital vernier calipers, and the degree of edema (%) based on the thickness measured before administration was calculated.

[5] = tested on: 5-lipoxygenase; assay: Effect on 5-lipoxygenase activity; assay type: biochemical, rats
Procedure: Moreover, its inhibitory effect on 5-lipoxygenase was tested according to the method of Egan et al. (Journal of Biological Chemistry, 260: 11554-11559, 1985). Specifically, an enzyme preparation derived from the basophilic leukemia cells (RBL-1) of rats was used. This enzyme preparation, together with 30 μM Compound 3, was incubated at room temperature for 5 minutes, followed by the addition of linolenic acid. Thereafter, this mixture was incubated at room temperature for 8 minutes. After the reaction was stopped by the addition of a sodium hydroxide solution, its absorbance was measured at 234 nm.

[6] = Acute toxicity in mice; assay type: in vivo, DBA/1J mice; details: 100 mg/kg
Procedure: (§2) Among the compounds in accordance with the present invention, each of Compounds 1, 2 and 3 was orally or intraperitoneally administered to eight DBA/1J mice in a dose of 100 mg/kg body weight. […] This seems to indicate that the compounds used in the present invention have no or very little, if any, acute toxicity. Moreover, Compound 1, in a dose of 100 mg/kg body weight, or Compound 3, in a dose of 30 mg/kg body weight, was orally administered to eight mice of the aforesaid strain for 40 days. […] Thus, the compounds of the present invention have little subacute toxicity. Since other compounds in accordance with the present invention are estimated to have similar properties, the compounds of the present invention can be used very safely.

[7] = parameters: species or system DBA/1J mice; details: mouse, in vivo, po, 30 mg/kg
Procedure: as §2

For COc1cc(O)c2c(=O)oc(C(C)C(=O)O)cc2c1 (stereo not shown) [Compound 3, 2-(8-hydroxy-6-methoxy-1-oxo-1H-2-benzopyran-3-yl)propionic Acid], the “Sole thickness (sum of left and right, mm), after 37 days” value ([1]; 1 mg/kg/day) was 7.08 ± 0.16 mm, the “Sole thickness (sum of left and right, mm), after 37 days” value ([1]; 10 mg/kg/day) was 6.78 ± 0.98 mm and the “Score after 37 days” value ([2]; 1 mg/kg/day, control 9.25 ± 1.35) was 6.50 ± 1.49. For the same molecule, the “Score after 37 days” value ([2]; 3 mg/kg/day, control 9.25 ± 1.35) was 5.00 ± 1.61, the “Score after 37 days” value ([2]; 10 mg/kg/day, **p < 0.01 vs control (9.25 ± 1.35)) was 3.50 ± 0.63 and the Vascularization score ([3]; oral 0.3 mg/kg, n = 10) was 2.40 ± 0.4. It also gave a Vascularization score ([3]; oral 1.0 mg/kg, n = 11) of 1.55 ± 0.43, a Vascularization score ([3]; oral 3 mg/kg, n = 14) of 0.86 ± 0.33 and a Vascularization score ([3]; oral 10 mg/kg, n = 14) of 0.86 ± 0.38. For the same molecule, the “inhibition of vascularization induced by tumor cell S180 (in words)” value ([3]; oral, 1-10 mg/kg body weight) was “significantly inhibited vascularization”, the “effect on carrageenin edema (in words)” value ([4]; doses of 3 and 30 mg/kg) was “no inhibitory effect on carrageenin edema” and the “Degree of edema (%)” value ([4]; oral 3 mg/kg) was 41.7 ± 3.1%. The “Degree of edema (%)” value ([4]; oral 30 mg/kg) was 46.1 ± 4.2%, the “Degree of inhibition (%), 5-Lipoxygenase” value ([5]; 30 μM Compound 3, n = 2) was 21.0% and the “inhibitory effect on lipoxygenase (in words)” value ([5]; 30 μM or 300 μM) was “no inhibitory effect on cyclooxygenase or lipoxygenase”. The “evidence of toxicity, single administration” value ([6]; mouse, in vivo) was “no animal showed evidences of toxicity”, the “mortality, single administration” value ([6]; oral or intraperitoneal, eight DBA/1J mice) was “No animal died” and the “evidence of toxicity, 40 days” value [7] was “no animal showed evidences of toxicity”. The “mortality, 40 days” value [7] was “No animal died”.
